These results are taken from patent publication US8697692B2, “Pyrrolo [3,2-c] pyridine-4-one 2-indolinone protein kinase inhibitors” (Shanghai Hengrui Pharmaceutical Co., Ltd., priority 2006, dated 2014).

This assay has as its system HUVEC cell. Kind of assay: Cell Proliferation Inhibition VEGF-R2 Assay (SRB method). Type of assay: cell-based, homo sapient. As to conditions: Homo sapiens; HUVEC cells, 72 hours exposure, Sulforhodamine B; read-out: IC50 (VEGFR/HUVEC). The text has this:
The following in vitro assay may be used to determine the level of activity and effect of different compounds of the present invention on the proliferation inhibition (cell toxic) of endothelium growth factor receptor (VEGFR) high expressing homo […] cancer cell-HUVEC cell. The cellular assay described here measure the compounds of their anti-angiogenesis and proliferation inhibition activity and effect through […] on the cancer cells in vitro. The effect and activity is represented by the IC50 value that kills the cancer cell. […] The homo […] highly express […] are chosen and seeded to 96-well cell culture plate at a suitable concentration (exp 5000 cells/ml medium). The cells then are cultured in carbon dioxide (CO2) incubator till when they confluence to about 85%. Then, the cell culture medium is replaced by fresh one with tested compounds added in it at serial concentrations (general 6 to 7 concentrations). Then the cells are put back to the culture and cultured for continuous 72 hours. 72 hours later, the cell exposed to compounds and control cell are assayed for their proliferation using Sulforhodamine B (SRB) method. […] Dimethyl sulfoxide (Sinophma chemical reagent company, catalog No. T20050806) • b. HUVEC cells (Purchased from Institute of biochemistry and cell biology) • c. […] Acetic Acid (Sinophma chemical reagent company, Catalog No. T20060508) • l. Trichloroacetic Acid (Sinophma chemical reagent company, Catalog No. T20060305) • m. […] Class II A/B3 Biological safety cabinet (ThermoForma Catalog No. HB0053-03) • o. […] Centrifuge (Fisher Scientific Marathon 8 k, Catalog No. 0027-02) • q. Novastar Plate reader (BMG Labtech, Catalog No. 700-0081) • r. […] Growing seeded 96-well plates at 37° C., 5% CO2, till 85% confluence. • 4. Prepare compounds stock solution, using DMSO solve candidate compounds to a concentration of 20 mM. […] Use cell culture medium (in this case, DMEM/F12+10% FBS) to dilute the compounds solution prepared above. Each DMSO serial concentration compound solution is diluted by 20 times with culture medium by adding 5 μl DMSO compound solution to 95 μl culture medium, then mix well by vortex. […] After HUVEC cell has attached to the dish bottom and confluence about 85%, change the culture medium with fresh DMEM/F12 plus 10% FBS. Each well added 180 μl medium, then add 20 μl medium solution of tested compounds prepared at step 5 to each well. For control group cell, add 20 μl culture medium containing 0.5% pure DMSO. […] Each 96-well plate, we can test 3 compounds with a control cell group. • 7. Put the culture plates back to incubator, culture for 72 hours at 37° C., 5% CO2. • 8. 72 hours later, remove cultures from incubator into sterile work area. • 9. Prepare fixative (50% Trichloroacetic Acid-TCA) by adding reagent grade water to the TCA, fix the cells by gently layering 50 μl of cold TCA solution on top of the growth medium. • 10. Incubate plates for 1 hour at 4° C. and then rinse with water several times to remove TCA, serum proteins, etc. Plates are air dried and stored until use. Bland background optical density is measured in wells incubated with growth medium without cells. • 11. Use 10% acetic acid solution to prepare 0.4% Sulforhodamine B solution. Add 50 μl sulforhodamine B solution to each well of 96-well plates. • 12. Allow cells to stain for 30 minutes. • 13. Prepared the wash solution of […] acetic acid. At the end of the staining period, the stain is removed and the cells rinsed quickly with 1% acetic acid. Repeat until unincorporated dye is removed. Keep wash times to a minimum to reduce desorption of protein-bound dye. After being rinsed, the cultures are air dried until no moisture is visible. • 14. The incorporated dye is then solubilized in a volume of Sulforhodamine B assay Solubilization solution (10 mM Tris) equal to the original volume of culture medium. Allow cultures to stand for 5 minutes at room temperature.
On the technique in general: The SRB assay estimates cell density from bound dye.
Take `Cc1cccc2c1/C(=C/c1[nH]c3c(c1C)C(=O)N(CCN1CCOCC1)CC3)C(=O)N2` [Example 51, 3-Methyl-2-(4-methyl-2-oxo-1,2-dihydro-indol-3-ylidenemethyl)-5-(2-morpholin-4-yl-ethyl)-1,5,6,7-tetrahydro-pyrrolo[3,2-c]pyridin-4-one]: the IC50 is 780 nM.

Consider `Cc1c(/C=C2\C(=O)Nc3ccc(Br)cc32)[nH]c2c1C(=O)N(CCN1CCOCC1)CC2` [Example 17, 2-(5-Bromo-2-oxo-1,2-dihydro-indol-3-ylidenemethyl)-3-methyl-5-(2-mopholin-4-yl-ethyl)-1,5,6,7-tetrahydro-pyrrolo[3,2-c]pyridin-4-one], for which the IC50 amounted to 2260 nM.

Turning to `CCN(CC)CCN1CCc2[nH]c(/C=C3\C(=O)Nc4ccc(NC(C)=O)cc43)c(C)c2C1=O` [Example 11, N-{3-[5-(2-Diethylamino-ethyl)-3-methyl-4-oxo-4,5,6,7-tetrahydro-1H-pyrrolo[3,2-c]pyridine-2-ylmethylene]-2-oxo-2,3-dihydro-1H-indol-5-yl}-acetamide], the IC50 was found to be 170 nM.

As to `CCN(CC)CCN1CCc2[nH]c(/C=C3\C(=O)Nc4ccc(NS(C)(=O)=O)cc43)c(C)c2C1=O` [Example 10, N-{3-[5-(2-Diethylamino-ethyl)-3-methyl-4-oxo-4,5,6,7-tetrahydro-1H-pyrrolo[3,2-c]pyridine-2-ylmethylene]-2-oxo-2,3-dihydro-1H-indol-5-yl}-methanesulfonamide], the IC50 worked out at 360 nM.

As to `Cc1c(/C=C2\C(=O)Nc3cccc(-c4cccc(F)c4F)c32)[nH]c2c1C(=O)N(CCN1CCOCC1)CC2` [Example 44, 2-[4-(2,3-Difluoro-phenyl)-2-oxo-1,2-dihydro-indol-3-ylidenemethyl]-3-methyl-5-(2-morpholin-4-yl-ethyl)-1,5,6,7-tetrahydro-pyrrolo[3,2-c]pyridin-4-one], the IC50 was 1320 nM.

With `CC(=O)Nc1cc2c(cc1F)/C(=C/c1[nH]c3c(c1C)C(=O)N(CCN1CCOCC1)CC3)C(=O)N2` [Example 19, N-{5-Fluoro-3-[3-methyl-5-(2-morpholin-4-yl-ethyl)-4-oxo-4,5,6,7-tetrahydro-1H-pyrrolo[3,2-c]pyridine-2-ylmethylene]-2-oxo-2,3-dihydro-1H-indol-6-yl}-acetamide], the IC50 was 2560 nM.

In the case of `O=C1Nc2ccc(F)cc2/C1=C/c1[nH]c2c(c1-c1ccc(F)cc1)C(=O)NCC2` [Example 46, 2-(5-Fluoro-2-oxo-1,2-dihydro-indol-3-ylidenemethyl)-3-(4-fluoro-phenyl)-1,5,6,7-tetrahydro-pyrrolo[3,2-c]pyridin-4-one], the IC50 was 10500 nM.

Regarding `O=C1Nc2ccc(Cl)cc2/C1=C/c1[nH]c2c(c1-c1ccc(F)cc1)C(=O)NCC2` [Example 58, 2-(5-Chloro-2-oxo-1,2-dihydro-indol-3-ylidenemethyl)-3-(4-fluoro-phenyl)-1,5,6,7-tetrahydro-pyrrolo[3,2-c]pyridin-4-one], the IC50 turned out to be 3990 nM.

`Cc1c(/C=C2\C(=O)Nc3ccc(NC=O)cc32)[nH]c2c1C(=O)N(CCN1CCOCC1)CC2` [Example 55, N-{3-[3-Methyl-5-(2-morpholin-4-yl-ethyl)-4-oxo-4,5,6,7-tetrahydro-1H-pyrrolo[3,2-c]pyridin-2-ylmethylene]-2-oxo-2,3-dihydro-1H-indol-5-yl}-formamide]: the IC50 came out at 3720 nM.

Turning to `Cc1c(/C=C2\C(=O)Nc3cc(N)c(F)cc32)[nH]c2c1C(=O)N(CCN1CCOCC1)CC2` [Example 20, 2-(6-Amino-5-fluoro-2-oxo-1,2-dihydro-indol-3-ylidenemethyl)-3-methyl-5-(2-morpholin-4-yl-ethyl)-1,5,6,7-tetrahydro-pyrrolo[3,2-c]pyridin-4-one], the IC50 amounted to 15300 nM.

Take `Cc1c(/C=C2\C(=O)Nc3c(N)cc(F)cc32)[nH]c2c1C(=O)N(CCN1CCOCC1)CC2` [Example 21, 2-(7-Amino-5-fluoro-2-oxo-1,2-dihydro-indol-3-ylidenemethyl)-3-methyl-5-(2-morpholin-4-yl-ethyl)-1,5,6,7-tetrahydro-pyrrolo[3,2-c]pyridin-4-one]: the IC50 worked out at 2100 nM.

As to `COc1ccc2c(c1)/C(=C/c1[nH]c3c(c1C)C(=O)N(CCN1CCOCC1)CC3)C(=O)N2` [Example 45, 2-(5-Methoxy-2-oxo-1,2-dihydro-indol-3-ylidenemethyl)-3-methyl-5-(2-morpholin-4-yl-ethyl)-1,5,6,7-tetrahydro-pyrrolo[3,2-c]pyridin-4-one], the IC50 stood at 1150 nM.
